This note sets out measurements from US7666885B2, “Enzyme inhibitors” (Consejo Superior de Investigaciones Cientificas, priority 2000, dated 2010).

In the first data set the target is T1, GSK-3β (Homo sapiens, UniProt P49841).
T1 construct: purchased Sigma
T1 sequence (P49841 whole entry, species assumed): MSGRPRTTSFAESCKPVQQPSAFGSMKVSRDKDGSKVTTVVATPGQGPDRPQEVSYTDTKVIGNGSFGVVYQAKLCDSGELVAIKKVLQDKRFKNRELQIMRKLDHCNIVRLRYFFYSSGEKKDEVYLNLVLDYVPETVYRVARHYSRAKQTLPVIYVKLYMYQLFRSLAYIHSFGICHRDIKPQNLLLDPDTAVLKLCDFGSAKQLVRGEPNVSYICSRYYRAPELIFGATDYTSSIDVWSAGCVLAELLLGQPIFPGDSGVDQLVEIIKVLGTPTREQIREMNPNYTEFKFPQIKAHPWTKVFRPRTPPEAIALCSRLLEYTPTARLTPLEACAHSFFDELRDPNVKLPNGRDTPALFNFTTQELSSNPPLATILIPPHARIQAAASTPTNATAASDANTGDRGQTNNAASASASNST
Nature of the data set: GSK-3β inhibition (radiometric, GS 1 peptide). In kind it is biochemical. The settings on record: GSK-3 enzyme (Sigma), 15 μM ATP, GS 1 peptide; Tables 3, 3a, 4; read-out: IC50. On the procedure: GSK-3β inhibition: The GSK-3 activity was determined by incubation of a mixture of GSK-3 enzyme (Sigma), a phosphate source and a GSK-3 substrate in the presence and in the absence of the corresponding test compound, and by measuring the GSK-3 activity of this mixture.
The reaction is quenched by addition of an aliquot of the reaction mixture in phosphocelullose p81 papers. These papers are washed three times with phosphoric acid 1% and the radioactivity incorporated to the GS 1 peptide is measured in a liquid scintillation counter.
On to `Cn1c(=O)n(-c2ccccc2)c(=O)n1C` [Compound 2-H], for which the IC50 (commonly the concentration that inhibits the measured activity by half) was greater than 100 µM. On to “3-(4-Ethyl-3-oxo-2-methyl-1,2,4-thiadiazolidin-5-ylidine)aminopyridine-1-oxide [Compound 23]”, for which the IC50 was greater than 100 µM.

Take `CCn1sc(=NO)n(-c2ccccc2)c1=O` [Compound 50, 2-Ethyl-4-phenyl-1,2,4-thiadiazolidine-3-one-5-oxime]: the IC50 stood at 100 µM. Turning to `O=C(CN1C(=O)CSC1=S)c1ccccc1` [Compound 6-G, 3-Phenacyl-2-thioxo-thiazolidin-4-One], the IC50 stood at 50 µM. For the compound `O=c1sn(-c2ccccc2)c(=S)n1-c1ccccc1` [Compound 12, 2,4-diphenyl-5-oxo-thiadiazolidine-3-thione], the IC50 is 20 µM. The same measure, in the same setting: under `CCn1sc(=O)n(Cc2ccccc2)c1=O` [Compound 8, 4-Benzyl-2-ethyl-1,2,4-thiadiazolidine-3,5-dione] stands 7 µM; under `O=C1CSC(=S)N1CCc1ccccc1` [Compound 5-G, 3-Phenethyl-2-thioxo-thiazolidin-4-One], 35 µM. As to `O=C1c2ccccc2C(=O)N1Cc1ccccc1` [Compound 2-F], the IC50 was greater than 100 µM. Consider `O=C1CCC(=O)N1Cc1ccccc1` [Compound 2-E], for which the IC50 is greater than 100 µM. “3-[5-(4-Ethyl-2-methyl-3-oxo)imino-1,2,4-thiadiazolidyl]-1-methyl-pyridinium iodide [Compound 24]”: the IC50 is greater than 100 µM. On the same count and under the same terms, under `CCOC(=O)Cn1sc(=O)n(Cc2ccccc2)c1=O` [Compound 33, 4-Benzyl-2-(Ethoxycarbonylmethyl)-1,2,4-thiadiazolidine-3,5-dione] stands 4 µM. Turning to `O=C(c1ccccc1)n1sc(=O)n(Cc2ccccc2)c1=O` [Compound 31, 2-Benzoyl-4-benzyl-1,2,4-thiadiazolidine-3,5-dione], the IC50 was found to be 3 µM. With `CCOC(=O)Cn1sc(=O)n(CC(=O)OCC)c1=O` [Compound 44, 4-(Ethoxycarbonylmethyl)-2-(ethoxycarbonylmethyl)-1,2,4-thiadiazolidine-3,5-dione], the concentration for half-maximal inhibition (IC50) is 4 µM.

For the compound `O=C1CCC(=O)C1` [Compound 1-A], the IC50 was greater than 100 µM.

`Cc1ccc(-n2c(=O)sn(C)c2=O)cc1` [Compound 15, 4-(4-Methylphenyl)-2-methyl-1,2,4-thiadiazolidine-3,5-dione]: the IC50 stood at 5 µM. With `O=c1[nH]sc(=O)n1Cc1ccccc1` [Compound 42, 4-Benzyl-1,2,4-thiadiazolidine-3,5-dione], the IC50 is 50 µM. Regarding `O=C(O)CN1C(=O)CSC1=S` [Compound 3-G, (4-oxo-2-thioxo-thiazolidin-3-yl)-acetic acid], the IC50 was greater than 100 µM. For `CCOC(=O)Cn1c(=O)sn(C(=O)c2ccccc2)c1=O` [Compound 47, 2-Benzoyl-4-(ethoxycarbonylmethyl)-1,2,4-thiadiazolidine-3,5-dione], the IC50 was found to be 4 µM. Still for that read-out and setting: the same measure for `CCOC(=O)Cn1c(=O)sn(C)c1=O` [Compound 45, 4-(Ethoxycarbonylmethyl)-2-methyl-1,2,4-thiadiazolidine-3,5-dione]: 2 µM; for `CCn1sc(=O)n(-c2ccc([N+](=O)[O-])cc2)c1=O` [Compound 49, 2-Ethyl-4-(4-nitrophenyl)-1,2,4-thiadiazolidine-3,5-dione]: 8.5 µM; for `CCOC(=O)Cn1c(=O)sn(C)c1=O` [Compound 6, 4-(Ethoxycarbonylmethyl)-2-methyl-1,2,4-thiadiazolidine-3,5-dione]: 5 µM. The same measure, in the same setting: the same measure for `O=c1sn(Cc2ccccc2)c(=S)n1Cc1ccccc1` [Compound 11, 2,4-Dibenzyl-5-oxo-thiadiazolidine-3-thione]: 10 µM; for `Cn1sc(=O)n(-c2ccccc2)c1=O` [Compound 5, 4-Phenyl-2-methyl-1,2,4-thiadiazolidin-3,5-dione]: 2 µM; for “4-Ethyl-5-[imino-(1-methyl-piperidin-3-yl)]-2-methyl-1,2,4-thiadiazolidin-3-One [Compound 25]”: greater than 100 µM. On to `Cn1sc(=O)n(-c2ccc(Cl)cc2)c1=O` [Compound 18, 4-(4-Chlorophenyl)-2-methyl-1,2,4-thiadiazolidine-3,5-dione], for which the IC50 amounted to 4 µM.

In the case of `CCCn1sc(=O)n(CC)c1=O` [Compound 3, 4-Ethyl-2-n-propyl-1,2,4-thiadiazolidine-3,5-dione], the IC50 was 10 µM.

Turning to `CCn1c(=O)sn(C)c1=O` [Compound 2, 4-Ethyl-2-methyl-1,2,4-thiadiazolidine-3,5-dione], the IC50 was found to be 5 µM. Take `CCn1c(=O)sn(C(C)C)c1=O` [Compound 9, 4-Ethyl-2-isopropyl-1,2,4-thiadiazolidin-3,5-dione]: the IC50 stood at 35 µM. `CCn1sc(=O)n(Cc2ccccc2)c1=S` [Compound 10, 4-Benzyl-2-ethyl-5-oxo-1,2,4-thiadiazolidine-3-thione]: the IC50 is 6 µM. Still for that read-out and setting: the same measure for `CCn1sc(=O)n(CCc2ccccc2)c1=O` [Compound 41, 2-Ethyl-4-phenethyl-1,2,4-thiadiazolidine-3,5-dione]: 8 µM. Same read-out and setting: under `CCn1sc(=O)n(CC)c1=O` [Compound 13, 2,4-diethyl-5-oxo-1,2,4-thiadiazolidine-3,5-dione] stands 20 µM; under `CCOC(=O)Cn1c(=O)sn(C(C)C)c1=O` [Compound 46, 4-(Ethoxycarbonylmethyl)-2-isopropyl-1,2,4-thiadiazolidine-3,5-dione], 7 µM; under `Cn1sc(=O)n(-c2ccc(F)cc2)c1=O` [Compound 17, 4-(4-Fluorophenyl)-2-methyl-1,2,4-thiadiazolidine-3,5-dione], 4 µM. As for `CCn1sc(=NO)n(Cc2ccccc2)c1=O` [Compound 36, 4-Benzyl-2-ethyl-1,2,4-thiadiazolidine-3-one-5-oxime], the IC50 was found to be 6 µM. The same measure, in the same setting: under `O=C1NC(=O)c2ccccc21` [Compound 1-F] stands greater than 100 µM.

As to `O=C1C=CC(=O)C1` [Compound 1-B], the IC50 was 12 µM. Turning to `CCn1c(=O)sn(C2CCCCC2)c1=O` [Compound 4, 2-Cyclohexyl-4-ethyl-1,2,4-thiadiazolidine-3,5-dione], the IC50 turned out to be 10 µM. Turning to `Cn1sc(=O)n(-c2ccc(Br)cc2)c1=O` [Compound 16, 4-(4-Bromophenyl)-2-methyl-1,2,4-thiadiazolidine-3,5-dione], the IC50 was found to be 3 µM.

The data set is the same for the next values; noted with them: Tables 4a, 4b; read-out: GSK-3β IC50.
As to `NN1C(=O)CSC1=S` [Compound 7-G], the IC50 was greater than 100 µM. With `COc1ccc(CN2C(=O)C=CC2=O)cc1` [Compound 7-D, N-(p-methoxybenzyl)maleimide], the IC50 turned out to be 2.5 µM. Same read-out and setting: under `O=C1C=CC(=O)N1CCc1ccccc1` [Compound 4-D, N-phenethylmaleimide] stands 2 µM.

System in a further data set: not given
Assay: not given
Conditions: not given
For `COc1ccc(CCN2C(=O)C=CC2=O)cc1` [Compound 8-D, N-(p-Methoxyphenethyl)maleimide], the melting point (commonly the temperature of the solid-liquid transition) fell in the range of 79 to 81 °C. The same measure, in the same setting: the same measure for `O=C1C=CC(=O)N1CCCCCc1ccccc1` [Compound 6-D, N-(5-phenylpentyl)maleimide]: 49 to 51 °C. Still for that read-out and setting: under `O=C1C=CC(=O)N1CCCc1ccccc1` [Compound 5-D, N-(3-phenylpropyl)maleimide] stands 79 to 80 °C.

Another data set concerns N2A cells. As to the kind of experiment: Cell cycle blockade. The settings on record: Mus musculus; N2A cell cultures, Table 5. In kind it is cell-based, mice. How it is done:
In parallel, the potential interference of these compounds with the cell cycle was studied on N2A cells. The cell culture was maintained in a Dulbecco medium (DEMEM) with a 10% fethal bovine serum, glutamine (2 mM) and antibiotics.
The first four compounds of general formula (I) gathered in Table 3 were assayed in the described conditions and shown ability to inhibit the cell cycle at an inhibitor concentration comprised between 100 nM and 1 μM. The cellular blockade was initially observed at concentrations comprised between 100-200 nM and was totally effective at 1 μM.
For `CCn1sc(=O)n(Cc2ccccc2)c1=O` [Compound 8, 4-Benzyl-2-ethyl-1,2,4-thiadiazolidine-3,5-dione], the IC50 lay in the range of 4 to 7 µM. As to `Cn1sc(=O)n(Cc2ccccc2)c1=O` [Compound 1, 4-Benzyl-2-methyl-1,2,4-thiadiazolidine-3,5-dione], the IC50 was in the range of 4 to 8 µM.

`CCOC(=O)Cn1c(=O)sn(C)c1=O` [Compound 6, 4-(Ethoxycarbonylmethyl)-2-methyl-1,2,4-thiadiazolidine-3,5-dione] had an IC50 of 1 to 2 µM.

Compound `Cn1sc(=O)n(-c2ccccc2)c1=O` [Compound 5, 4-Phenyl-2-methyl-1,2,4-thiadiazolidin-3,5-dione] gave an IC50 of 4 to 7 µM. The compound `CCCn1sc(=O)n(CC)c1=O` [Compound 3, 4-Ethyl-2-n-propyl-1,2,4-thiadiazolidine-3,5-dione] had an IC50 of 5 to 10 µM.

The compound `CCn1c(=O)sn(C)c1=O` [Compound 2, 4-Ethyl-2-methyl-1,2,4-thiadiazolidine-3,5-dione] returned an IC50 of 40 to 100 µM. As for `COc1ccc(-n2c(=O)sn(C)c2=O)cc1` [Compound 7, 4-(4-Methoxyphenyl)-2-methyl-1,2,4-thiadiazolidine-3,5-dione], the IC50 lay within 1 to 2 µM. For the compound `CCn1c(=O)sn(C2CCCCC2)c1=O` [Compound 4, 2-Cyclohexyl-4-ethyl-1,2,4-thiadiazolidine-3,5-dione], the IC50 fell in the range of 6 to 9 µM.

The same data set, now with this note: N2A cell cultures, Table 5.
In the case of `O=c1sn(-c2ccccc2)c(=S)n1-c1ccccc1` [Compound 12, 2,4-diphenyl-5-oxo-thiadiazolidine-3-thione], the IC50 is 4 to 8 µM. In turn, `O=c1sn(Cc2ccccc2)c(=S)n1Cc1ccccc1` [Compound 11, 2,4-Dibenzyl-5-oxo-thiadiazolidine-3-thione] registered an IC50 of 1 to 2 µM.
